The METLIN SMRT retention time set (Domingo-Almenara et al. 2019)

Test: gradient 5% acetonitrile 3 min, to 50% in 2 min, to 85% in 15 min, held 3 min, 100 µL/min
Conditions: column: Zorbax Extend-C18 2.1 x 50 mm; eluents: water / acetonitrile, 0.1% formic acid
How it was run: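 Mixtures of ~100 pure standards were chromatographed on a Zorbax Extend-C18 column (2.1 × 50 mm, 1.8 μm) at 100 μL/min using water and acetonitrile, each with 0.1% formic acid. Detection used a quadrupole time-of-flight mass spectrometer in positive and negative ionization mode, and data collection spanned 3 months. Retention time was obtained from adduct peaks picked computationally and each checked manually.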

SMILES	RP-LC retention time
Cc1ccc(S(=O)(=O)N2C(=O)CCC2C(=O)N(C)C2CCCCC2)cc1C (configuration not stated)	1010 s
O=C(Cn1c(=O)c2cc(-c3ccco3)nn2c2ncccc21)Nc1ccc(F)cc1F	840 s
CCc1ccc(CNC(=O)c2cn3ccccc3n2)cc1	757 s
CCN1CCN(C(=O)c2cn(-c3cc(N4CCSCC4)ncn3)cn2)CC1	605 s
CCc1ccc(S(=O)(=O)N2CCc3nc(-c4ccc(OC)cc4)ncc3C2)cc1	1140 s
CCCCOc1ccc(C(=O)N2CCCC2c2nc(-c3ccccc3)no2)cc1 (configuration not stated)	1230 s
Cc1ccc(C(=O)N2CCC(n3c(-c4ccco4)nc4cccnc43)C2)cc1C (configuration not stated)	806 s
COc1ccc(CCc2nc3cc(-c4c(C)noc4C)ccc3n2C[C@H](C)N2CCOCC2)cc1Cl	742 s
N#Cc1ccc(Cl)cc1NC(=O)c1cccn(Cc2cccc(C(F)(F)F)c2)c1=O	1090 s
c1ccc(-c2nc(CC3CCNC3)no2)cc1 (configuration not stated)	608 s
O=C(NCCc1ccccc1)C1CCN(c2cc(N3CCCCC3)ncn2)CC1	685 s
COc1ccc(OC)c(CNC(=O)c2c(N3CCCC3=O)c3cc(F)ccc3n2C)c1	904 s
CCOC(=O)CSc1nc2c(sc3ccccc32)c(=O)n1Cc1ccco1	1040 s
CCc1noc(NC(C)=O)c1-c1ccc(C)c(S(=O)(=O)Nc2cccc(Cl)c2)c1	867 s
CSc1ccc(CNC(=O)C2CCN(c3cnc4nccnc4c3)CC2)cc1	702 s
CCN1CCN(C(=O)CCC2CCCN(c3cc(NC4CC4)ncn3)C2)CC1 (configuration not stated)	555 s
O=S(=O)(c1cc(F)ccc1F)N1CCC(c2noc(COCC3CC3)n2)CC1	1000 s
CCC(C)NC(=O)N1CCN(c2nc3ccccc3n(Cc3ccccc3)c2=O)CC1 (configuration not stated)	981 s
COC(=O)CNC(=O)NC(C(=O)N1CCc2ccccc21)c1ccccc1 (configuration not stated)	792 s
CCc1cc(=O)n(CC(=O)Nc2ccc(Cl)c(Cl)c2)c(-n2nc(C)cc2C)n1	1060 s
CC(=O)c1ccc(NC(=O)Cn2c(=O)n(-c3ccc(F)cc3)c(=O)c3c2cc(C)n3C)cc1	763 s
CCS(=O)(=O)c1nc2ccc(NS(=O)(=O)c3cc(C)cc(C)c3)cc2s1	936 s

SMILES	RP-LC retention time
COc1ccc(OC)c(CNC(=O)C2CCCN(c3nccnc3Sc3ccc(C)cc3)C2)c1 (configuration not stated)	1070 s
COc1cc2nc(C(=O)N3CCCCC3)cc(Nc3cc(C)cc(C)c3)c2cc1OC	760 s
CSc1ccc(-c2nc3cc(C)ccn3c2Nc2ccccc2C)cc1	790 s
CC(C)N1C(=O)Cc2ccccc2C1C(=O)N1CCN(c2ccccc2)CC1 (configuration not stated)	855 s
Nc1cc(C2CCN(C(=O)Nc3cccc(Cl)c3F)CC2)no1	676 s
CSc1ccc(-c2nc3ccc(Cl)cn3c2Nc2ccc(C)cc2)cc1	954 s
Cc1ccc(N2CCN(C(=O)c3ccc(CN4CCN(C(C)C)C(=O)C4=O)cc3)CC2)cc1	728 s
O=C(Nc1cccc(Cl)c1)C1CCCN(C(=O)c2cc(-c3ccccn3)n[nH]2)C1 (configuration not stated)	740 s
Cc1ccc(N2CN(CC(=O)N3CCCc4ccccc43)S(=O)(=O)c3cccnc32)cc1	1030 s
Cc1cc(C)cc(-c2nnc(Cc3nc(-c4ccc(F)cc4)no3)o2)c1	1120 s
O=C1CCCCC(CNC(=O)C2(c3ccccc3)CC2)N1 (configuration not stated)	697 s
CCC(C)NC(=O)N1CCN(c2cc(-c3ccc(OC)c(OC)c3)ncn2)CC1 (configuration not stated)	621 s
Cc1[nH]c(C(=O)NC2CCCCC2)c(C)c1S(=O)(=O)N1CCCC1	843 s
CC(=O)Nc1cccc(N2CC(C(=O)Nc3ccc(OC(F)(F)F)cc3)CC2=O)c1 (configuration not stated)	760 s
COc1ccc(-n2ccc(=O)c(-c3nc(-c4ccc(Cl)cc4)no3)n2)cc1	938 s
CNC(=O)c1ccc(-c2nc3cc(NS(=O)(=O)c4cc(F)ccc4F)ccc3n2C)cc1	637 s
FC1(F)CN[C@H](c2nc(-c3ccncc3)no2)C1	614 s
COCCc1noc(-c2cnc3nc(C)ccc3c2Nc2ccccc2Cl)n1	779 s
O=C(CN1CCC2(CC1)N=C(c1ccc(Cl)cc1)C(=O)N2)Nc1ccc2c(c1)OCCO2	670 s
CCCCCNC(=O)C1CCCN(c2ncc(-c3ccc(F)cc3)cn2)C1 (configuration not stated)	1060 s
Cc1ccc(-c2ccc(-n3nc(C)c(S(=O)(=O)NCCN4CCOCC4)c3C)nn2)cc1C	702 s
CC(C)Cn1ccc2c(cc(C(=O)NCc3cccc(Br)c3)n2C)c1=O	901 s

SMILES	RP-LC retention time
O=C(Nc1nc2ccc(F)cc2s1)c1ccccc1Br	900 s
O=C(CCC(=O)N1CC2CCCN2c2ccccc21)NCCc1cccs1 (configuration not stated)	906 s
Cc1cccc(NC(=O)C2CCCN(c3nc4ccccc4nc3C(F)(F)F)C2)c1C (configuration not stated)	830 s
CCCn1cnc2ccc(-c3noc(C(C)NC(=O)c4ccco4)n3)cc21 (configuration not stated)	584 s
CCN1CCn2cc(S(=O)(=O)NCc3cccc(C(F)(F)F)c3)cc2C1=O	781 s
CCN(C(=O)C1CCCN(c2ncnc3c2nc2n3CCCCC2)C1)c1cc(C)ccc1C (configuration not stated)	905 s
CCn1nccc1C(=O)NC1CCN(c2cc(-c3ccccc3)[nH]n2)CC1	688 s
COc1cccc(CNC(=O)C2(C)CCCN(C(=O)Nc3ccccc3)C2)c1 (configuration not stated)	839 s
COc1ccc(-c2noc(C3CC(=O)N(c4ccc(C)c(Cl)c4)C3)n2)c(OC)c1 (configuration not stated)	982 s
Cc1cc(NC(=O)CSc2nnc(NC(=O)c3ccc4c(c3)OCO4)s2)no1	727 s
CC(=O)N1CCc2cc(S(=O)(=O)C(C)CC(=O)N3CCN(c4cccc(C)c4C)CC3)ccc21 (configuration not stated)	935 s
O=C(NC1CCN(c2cc(-c3ccc(Cl)cc3)[nH]n2)C1)c1ccccc1Br (configuration not stated)	787 s
COc1cccc(-n2c(N3CCCC(C(=O)NCc4ccc(C)o4)C3)nc3ccsc3c2=O)c1 (configuration not stated)	849 s
O=C(NCCc1ccncc1)C1CCc2sc(C(=O)N3CCCC3)cc2C1 (configuration not stated)	506 s
O=C(CC1CCCC1)NCCC1CCN(C(=O)Nc2ccc(F)cc2F)CC1	812 s
COc1ccc(C(=O)NC(c2ccccc2)c2nnc(N3CCCC3)o2)cc1 (configuration not stated)	756 s
Cc1noc2nc(C)n(CC(=O)NCc3ccccc3F)c(=O)c12	710 s
CCCCn1nc2ccc(S(=O)(=O)N3CCOCC3)cn2c1=O	739 s
CCOc1ccc(NC(=O)c2cccn2-c2cccnc2)cc1	733 s
CN(C(=O)c1ccc(F)cc1C(F)(F)F)C1CCN(c2nnc(-c3ccnn3C)c3ccccc23)CC1	850 s
CN(C)c1ncccc1C(=O)Nc1ccc(F)cc1	610 s
O=C(NCCn1ncccc1=O)c1ccc(OCc2nc(-c3ccco3)cs2)cc1	690 s

SMILES	RP-LC retention time
COc1ccc2c(c1)C=C(C(=O)N1CCN(Cc3ccc(OC)c(OC)c3OC)CC1)CO2	682 s
Cc1cccc(NC(=O)C2CCN(S(=O)(=O)c3ccc4c(c3)sc(=O)n4C(C)C)CC2)c1	1010 s
O=C(NCc1ccc(F)cc1)C1CCN(S(=O)(=O)c2ccc(-c3noc(C4CC4)n3)cc2)CC1	1020 s
CCOC(=O)C1CCN([C@H]2CS(=O)(=O)C[C@@H]2S(=O)(=O)c2ccccc2)CC1	826 s
O=C(NCc1ccc(-c2nc(C3CC3)no2)s1)c1ccc(F)cc1F	956 s
Cc1ccc(Cl)cc1N1CCN(c2cc(C(=O)O)c3cc(NC(=O)C(C)(C)C)ccc3n2)CC1	830 s
NC(=O)c1cnn2c3c(cnc12)CCCCCC3	801 s
CCCn1cc(CCNC(=O)c2ccc(Cl)cc2)c2cccnc21	821 s
COc1ccc(C(C)NC(=O)c2c(C)sc3ccn(C)c(=O)c23)cc1 (configuration not stated)	735 s
CCc1ccc(S(=O)(=O)N2CCN(c3cc(C)nc(NC4CCCCC4)n3)CC2)cc1	876 s
Cc1cc(C)c2[nH]c3c(c(=O)c2c1)CN(CC(=O)Nc1ccccc1)CC3	627 s
Cc1noc(-c2cccc(OC3CN(C(=O)Cc4ccccc4)C3)c2)n1	854 s
O=C(Nc1ccccc1)c1cnc(-c2ccc(F)cc2)nc1-c1ccncc1	892 s
CCOc1ccccc1-n1ccn(Cc2nc(-c3ccc(C(C)(C)C)cc3)no2)c(=O)c1=O	699 s
O=c1c(S(=O)(=O)N2CCCC2)cccn1Cc1cccc(F)c1	823 s
O=C1Oc2ccccc2C(=O)/C1=C1/C=C(c2ccccc2)SS1	1210 s
Cc1nnc(-c2ccc3ccn(CC(=O)Nc4ccc(F)c(Cl)c4)c3c2)o1	861 s
CCc1cccc(NC(=O)Nc2cccc(-c3ccc(N4CCOCC4)nn3)c2)c1	770 s
COCC(=O)N1CCCc2ccc(NC(=O)c3cc(C)oc3C)cc21	725 s
COc1ccc(F)cc1S(=O)(=O)N1CC(c2nc(-c3ccsc3)nn2C)C1	841 s
CCN1CCN(Cc2ccc(C(=O)NCc3cc(F)cc(F)c3)cc2)C(=O)C1=O	682 s
